In ChEMBL document CHEMBL1201862, “PubChem BioAssay data set” (2004):
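Protocol summary: plate cells (96-well), add compound at 5 concentrations, incubate 48 h, interpolate endpoints linearly. GI50 marks 50% less growth.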 Active and inactive are the calls of the source. Cut-off read from the data, not from the text of the source: active = GI50 up to about 1.1 µM and inactive = higher.

How the values were obtained:
Test in all cases: NCI tumour cell line growth inhibition, 48 h
OVCAR-8 = test system: OVCAR-8
EKVX = test system: EKVX
COLO 205 = test system: COLO 205
CAKI-1 = test system: CAKI-1
PC-3 = test system: PC-3
CCRF-CEM = test system: CCRF-CEM
SK-OV-3 = test system: SK-OV-3
HCT-116 = test system: HCT-116
SK-MEL-2 = test system: SK-MEL-2
HCC 2998 = test system: HCC 2998
MOLT-4 = test system: MOLT-4
UACC-62 = test system: UACC-62
OVCAR-4 = test system: OVCAR-4
SNB-19 = test system: SNB-19
HT-29 = test system: HT-29
M14 = test system: M14
SF-539 = test system: SF-539
OVCAR-5 = test system: OVCAR-5
MCF7 = test system: MCF7

Structure (SMILES)	GI50 (OVCAR-8)	GI50 (EKVX)	GI50 (COLO 205)	GI50 (CAKI-1)	GI50 (PC-3)	GI50 (CCRF-CEM)	GI50 (SK-OV-3)	GI50 (HCT-116)	GI50 (SK-MEL-2)	GI50 (HCC 2998)	GI50 (MOLT-4)	GI50 (UACC-62)	GI50 (OVCAR-4)	GI50 (SNB-19)	GI50 (HT-29)	GI50 (M14)	GI50 (SF-539)	GI50 (OVCAR-5)	GI50 (MCF7)
CC(=O)c1cn(-c2ccc(Cl)cc2)c(=O)c2c(N)n[nH]c12	> 100 µM (inactive)	> 100 µM (inactive)	> 100 µM (inactive)	> 100 µM (inactive)	> 100 µM (inactive)	> 100 µM (inactive)	> 100 µM (inactive)	> 100 µM (inactive)	> 100 µM (inactive)	> 100 µM (inactive)	> 100 µM (inactive)	41.7 µM (inactive)	> 100 µM (inactive)	> 100 µM (inactive)	> 100 µM (inactive)	–	–	–	–
CCCC(=O)N[C@H]1C2C3CC4C5CC(C42)C1(C)C53 (stereo partly specified)	–	> 100 µM (inactive)	> 100 µM (inactive)	> 100 µM (inactive)	–	> 100 µM (inactive)	> 100 µM (inactive)	> 100 µM (inactive)	> 100 µM (inactive)	> 100 µM (inactive)	> 100 µM (inactive)	> 100 µM (inactive)	> 100 µM (inactive)	> 100 µM (inactive)	> 100 µM (inactive)	> 100 µM (inactive)	> 100 µM (inactive)	> 100 µM (inactive)	–
Cc1ccc(S(=O)(=O)NC(=O)NCCc2ccc(O)c(O)c2)cc1	97.3 µM (inactive)	> 100 µM (inactive)	> 100 µM (inactive)	> 100 µM (inactive)	> 100 µM (inactive)	–	> 100 µM (inactive)	> 100 µM (inactive)	> 100 µM (inactive)	> 100 µM (inactive)	58.2 µM (inactive)	> 100 µM (inactive)	> 100 µM (inactive)	> 100 µM (inactive)	> 100 µM (inactive)	> 100 µM (inactive)	> 100 µM (inactive)	> 100 µM (inactive)	61.8 µM (inactive)
CCOC(=O)[C@H]1C[C@@H](C(=O)c2ccccc2)N2N=C(c3ccc(Br)cc3)C=C[C@H]12	> 100 µM (inactive)	–	> 100 µM (inactive)	> 100 µM (inactive)	> 100 µM (inactive)	–	> 100 µM (inactive)	> 100 µM (inactive)	> 100 µM (inactive)	> 100 µM (inactive)	77.6 µM (inactive)	> 100 µM (inactive)	> 100 µM (inactive)	> 100 µM (inactive)	–	> 100 µM (inactive)	–	> 100 µM (inactive)	> 100 µM (inactive)
Cc1c(C(=O)OCc2ccccc2)[n+]([O-])c2cc(F)c(F)cc2[n+]1[O-]	2.07 µM (inactive)	3.26 µM (inactive)	3.61 µM (inactive)	2.15 µM (inactive)	2.52 µM (inactive)	0.944 µM (active)	–	1.63 µM (inactive)	1.67 µM (inactive)	1.9 µM (inactive)	1.96 µM (inactive)	2.11 µM (inactive)	1.77 µM (inactive)	2.08 µM (inactive)	2.01 µM (inactive)	1.77 µM (inactive)	2.52 µM (inactive)	3.72 µM (inactive)	2.31 µM (inactive)
Cc1ccc(Nc2nc3c(s2)C(=O)c2ccccc2C3=O)c(C)c1	15.7 µM (inactive)	18.3 µM (inactive)	18.9 µM (inactive)	14.2 µM (inactive)	–	4.13 µM (inactive)	29.6 µM (inactive)	–	13.7 µM (inactive)	17.2 µM (inactive)	3.94 µM (inactive)	13.8 µM (inactive)	12.2 µM (inactive)	14.6 µM (inactive)	20.9 µM (inactive)	14.3 µM (inactive)	17.5 µM (inactive)	19.8 µM (inactive)	–
CC(=O)O[C@H]1[C@@H]2[C@@H]3[C@@H](C[C@H]1C)[C@@H](C)CO[C@@]1(C)CC/C=C(/C)C[C@@H]2O[C@@H]31	> 100 µM (inactive)	> 100 µM (inactive)	> 100 µM (inactive)	> 100 µM (inactive)	–	> 100 µM (inactive)	> 100 µM (inactive)	> 100 µM (inactive)	> 100 µM (inactive)	56.2 µM (inactive)	> 100 µM (inactive)	> 100 µM (inactive)	> 100 µM (inactive)	> 100 µM (inactive)	> 100 µM (inactive)	> 100 µM (inactive)	> 100 µM (inactive)	> 100 µM (inactive)	–
O=C(/C=C/c1ccco1)c1ccc(NCc2nc3ccccc3[nH]2)cc1	17.9 µM (inactive)	14.6 µM (inactive)	13.5 µM (inactive)	17.2 µM (inactive)	–	13 µM (inactive)	18.3 µM (inactive)	–	19.1 µM (inactive)	14.6 µM (inactive)	10.4 µM (inactive)	14 µM (inactive)	19.2 µM (inactive)	15.6 µM (inactive)	19.8 µM (inactive)	16.9 µM (inactive)	18 µM (inactive)	17.7 µM (inactive)	–
